Reference: US6737383B1, “Herbicidal oxadiazolidines” (priority 1999, dated 2004)

Experiments:
rape = test: Test B pre/postemergence rape; format: in vivo, Brassica napus
Outline: (§1)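 Herbicidal effect was estimated by eye on a ten-point control scale after plants spent twelve to sixteen days in a greenhouse following soil or foliar treatment. Foliar sprays targeted plants at one to four leaves; all doses were formulated in a non-phytotoxic solvent with surfactant.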

morningglory = test: Test B pre/postemergence morningglory; format: in vivo, Ipomoea hederacea
Outline: as §1

wild oat = test: Test B pre/postemergence wild oat; format: in vivo, Avena fatua
Outline: as §1

rice = test: Test B flood test rice; format: in vivo, Oryza sativa
Outline: (§2)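 Flood test on plants grown to the 2-leaf stage; treated plants kept in greenhouse twelve to sixteen days, then visually rated against controls on a 0 (no effect) to 10 (complete control) scale.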

soybean = test: Test B pre/postemergence soybean; format: in vivo, Glycine max
Outline: as §1

duck salad = test: Test B flood test duck salad; format: in vivo, Heteranthera limosa
Outline: as §2

pigweed = test: Test B pre/postemergence pigweed; format: in vivo, Amaranthus retroflexus
Outline: as §1

blackgrass = test: Test B pre/postemergence blackgrass; format: in vivo, Alopecurus myosuroides
Outline: as §1

smallflower flatsedge = test: Test B flood test smallflower flatsedge; format: in vivo, Cyperus difformis
Outline: as §2

giant foxtail = test: Test B pre/postemergence giant foxtail; format: in vivo, Setaria faberii
Outline: as §1

cocklebur = test: Test B pre/postemergence cocklebur; format: in vivo, Xanthium strumarium
Outline: as §1

purple nutsedge = test: Test B pre/postemergence purple nutsedge; format: in vivo, Cyperus rotundus
Outline: as §1

wheat = test: Test B pre/postemergence wheat; format: in vivo, Triticum aestivum
Outline: as §1

sugar beet = test: Test B pre/postemergence sugar beet; format: in vivo, Beta vulgaris
Outline: as §1

velvetleaf = test: Test B pre/postemergence velvetleaf; format: in vivo, Abutilon theophrasti
Outline: as §1

bamyardgrass = test: Test B flood test barnyardgrass; format: in vivo, Echinochloa crus-galli
Outline: as §2

[1] = Postemergence, Rate 125 g/ha, scale of 0 to 10 where 0 is no effect and 10 is complete control
[2] = Preemergence, Rate 62 g/ha, scale of 0 to 10 where 0 is no effect and 10 is complete control
[3] = Preemergence, Rate 125 g/ha, 0 is no effect, 10 is complete control
[4] = Preemergence, Rate 250 g/ha, scale 0 to 10, 0 is no effect, 10 is complete control
[5] = Preemergence, Rate 500 g/ha, scale 0 to 10 (0 no effect, 10 complete control)
[6] = Rate 62 g/ha, Postemergence, scale of 0 to 10 where 0 is no effect and 10 is complete control
[7] = Rate 250 g/ha, Postemergence, scale 0 to 10, 0 is no effect, 10 is complete control
[8] = Rate 500 g/ha, Postemergence, scale 0 to 10
[9] = Rate 62 g/ha, headed Pre-emergence (flood test species), scale 0 to 10 (0 no effect, 10 complete control)
[10] = Rate 125 g/ha, Pre-emergence, flood test species, scale 0 to 10 where 0 is no effect and 10 is complete control
[11] = Rate 250 g/ha, Pre-emergence, flood-test species, scale 0 to 10, 0 is no effect, 10 is complete control
[12] = Rate 500 g/ha, headed Pre-emergence (flood test species), scale 0 to 10 (0 no effect, 10 complete control)

CCN(Cc1ccccc1)C(=O)n1oc(=O)n(C(C)C)c1=O [Compound 166]
Rape plant response rating (rape; [1]): 0
Rape plant response rating (rape; [2]): 0
Rape plant response rating (0 to 10 scale) (rape; [3]): 0
Rape plant response rating (rape; [4]): 0
Rape plant response rating (rape; [5]): 0
Rape plant response rating (rape; [6]): 0
Plant response rating, Rape (rape; [7]): 0
Morningglory plant response rating (morningglory; [1]): 1
Morningglory plant response rating (morningglory; [2]): 0
Morningglory plant response rating (0 to 10 scale) (morningglory; [3]): 0
Morningglory plant response rating (morningglory; [4]): 0
Morningglory plant response rating (morningglory; [5]): 0
Morningglory plant response rating (morningglory; [6]): 1
Plant response rating, Morningglory (morningglory; [7]): 2
Morningglory plant response rating (morningglory; [8]): 2
Wild oats plant response rating (wild oat; [2]): 0
Wild oats plant response rating (0 to 10 scale) (wild oat; [3]): 0
Wild oats plant response rating (wild oat; [4]): 0
Wild oats plant response rating (wild oat; [5]): 2
Plant response rating, Wild oats (wild oat; [7]): 0
Wild oats plant response rating (wild oat; [8]): 2
Rice plant response rating (rice; [9]): 0
Rice plant response rating (rice; [10]): 0
Rice plant response rating (rice; [11]): 0
Plant response rating, Rice (rice; [12]): 0
Soybean plant response rating (soybean; [1]): 0
Soybean plant response rating (soybean; [2]): 0
Soybean plant response rating (0 to 10 scale) (soybean; [3]): 0
Soybean plant response rating (soybean; [4]): 0
Soybean plant response rating (soybean; [5]): 2
Soybean plant response rating (soybean; [6]): 0
Plant response rating, Soybean (soybean; [7]): 2
Soybean plant response rating (soybean; [8]): 3
Ducksalad plant response rating (duck salad; [9]): 0
Ducksalad plant response rating (duck salad; [10]): 0
Ducksalad plant response rating (duck salad; [11]): 0
Plant response rating, Ducksalad (duck salad; [12]): 0
Redroot pigweed plant response rating (pigweed; [1]): 0
Redroot pigweed plant response rating (pigweed; [2]): 0
Redroot pigweed plant response rating (0 to 10 scale) (pigweed; [3]): 0
Redroot pigweed plant response rating (pigweed; [4]): 0
Redroot pigweed plant response rating (pigweed; [5]): 0
Redroot pigweed plant response rating (pigweed; [6]): 0
Plant response rating, Redroot pigweed (pigweed; [7]): 2
Redroot pigweed plant response rating (pigweed; [8]): 3
Blackgrass plant response rating (blackgrass; [1]): 4
Blackgrass plant response rating (blackgrass; [2]): 0
Blackgrass plant response rating (0 to 10 scale) (blackgrass; [3]): 0
Blackgrass plant response rating (blackgrass; [4]): 4
Blackgrass plant response rating (blackgrass; [5]): 5
Blackgrass plant response rating (blackgrass; [6]): 0
Plant response rating, Blackgrass (blackgrass; [7]): 7
Blackgrass plant response rating (blackgrass; [8]): 8
S. Flatsedge plant response rating (smallflower flatsedge; [9]): 0
S. Flatsedge plant response rating (smallflower flatsedge; [10]): 0
S. Flatsedge plant response rating (smallflower flatsedge; [11]): 0
S. Flatsedge plant response rating (smallflower flatsedge; Rate 500 g/ha, Pre-emergence, flood test species, scale 0 to 10 (0 no effect, 10 complete control)): 0
Giant foxtail plant response rating (giant foxtail; [1]): 0
Giant foxtail plant response rating (giant foxtail; [2]): 3
Giant foxtail plant response rating (0 to 10 scale) (giant foxtail; [3]): 5
Giant foxtail plant response rating (giant foxtail; [4]): 5
Giant foxtail plant response rating (giant foxtail; [5]): 7
Giant foxtail plant response rating (giant foxtail; [6]): 0
Plant response rating, Giant foxtail (giant foxtail; [7]): 1
Giant foxtail plant response rating (giant foxtail; [8]): 4
Cocklebur plant response rating (cocklebur; [1]): 0
Cocklebur plant response rating (cocklebur; [2]): 0
Cocklebur plant response rating (0 to 10 scale) (cocklebur; [3]): 0
Cocklebur plant response rating (cocklebur; [4]): 0
Cocklebur plant response rating (cocklebur; [5]): 0
Cocklebur plant response rating (cocklebur; [6]): 0
Plant response rating, Cocklebur (cocklebur; [7]): 0
Cocklebur plant response rating (cocklebur; [8]): 0
Nutsedge plant response rating (purple nutsedge; [1]): 0
Nutsedge plant response rating (0 to 10 scale) (purple nutsedge; [3]): 0
Nutsedge plant response rating (purple nutsedge; [4]): 0
Nutsedge plant response rating (purple nutsedge; [5]): 0
Nutsedge plant response rating (purple nutsedge; [6]): 0
Plant response rating, Nutsedge (purple nutsedge; [7]): 0
Nutsedge plant response rating (purple nutsedge; [8]): 0
Wheat plant response rating (wheat; [2]): 0
Wheat plant response rating (0 to 10 scale) (wheat; [3]): 0
Wheat plant response rating (wheat; [4]): 0
Wheat plant response rating (wheat; [5]): 0
Plant response rating, Wheat (wheat; [7]): 0
Wheat plant response rating (wheat; [8]): 3
Sugarbeets plant response rating (sugar beet; [1]): 0
Sugarbeets plant response rating (sugar beet; [2]): 0
Sugarbeets plant response rating (0 to 10 scale) (sugar beet; [3]): 0
Sugarbeets plant response rating (sugar beet; [4]): 0
Sugarbeets plant response rating (sugar beet; [5]): 0
Sugarbeets plant response rating (sugar beet; [6]): 0
Plant response rating, Sugarbeets (sugar beet; [7]): 0
Sugarbeets plant response rating (sugar beet; [8]): 0
Velvetleaf plant response rating (velvetleaf; [2]): 0
Velvetleaf plant response rating (0 to 10 scale) (velvetleaf; [3]): 0
Velvetleaf plant response rating (velvetleaf; [4]): 5
Velvetleaf plant response rating (velvetleaf; [5]): 6
Plant response rating, Velvetleaf (velvetleaf; [7]): 0
Velvetleaf plant response rating (velvetleaf; [8]): 0
Barnyardgrass plant response rating (bamyardgrass; [9]): 0
Barnyardgrass plant response rating (bamyardgrass; [10]): 0
Barnyardgrass plant response rating (bamyardgrass; [11]): 0
Plant response rating, Barnyardgrass (bamyardgrass; [12]): 0
